Reference: publication PMC6801448, “The Antioxidant and Antiproliferative Activities of 1,2,3-Triazolyl-L-Ascorbic Acid Derivatives” (International Journal of Molecular Sciences, 2019)
Where two headings read alike, the source gives them in different places.

How the values were obtained:
[1] = system: SW620 (colorectal adenocarcinoma, metastatic); experiment: MTT proliferation assay, SW620; assay type: cell-based; settings: Homo sapiens, SW-620, 72 h
Description: (§1) Human tumor cell lines HeLa (cervical carcinoma), SW620 (colorectal adenocarcinoma, metastatic), A549 (lung adenocarcinoma), MCF−7 (breast adenocarcinoma), CFPAC-1 (pancreatic adenocarcinoma, metastatic), HCT-116 (colorectal carcinoma), and HepG2 (hepatocellular carcinoma), and normal cell lines HFF-1 (foreskin fibroblasts) and WI-38 (immortalized human lung fibroblast), were from the US American Type Culture Collection (ATCC, Manassas, VA, USA). Cells were cultured in a liquid nutrient medium (Dulbecco’s Modified Eagle Medium, LONZA, Basel, Switzerland) supplemented with 10% fetal bovine serum (FBS, Gibco, Grand Island, NY, USA), 2 mM L-glutamine (GIBCO, Grand Island, NY, USA), 100 μg/mL penicillin, and 100 μg/mL streptomycin (LONZA, Basel, Switzerland), in an incubator (NÜVE, Ankara, Turkey), at a humid atmosphere with 5% CO2 at 37 °C. Trypsin/EDTA Solution (Lonza, Basel, Switzerland), was used for cell passaging and cell detachment.
(§2) Adherent cells were seeded on 96 well microtiter plates (Falcon, New York, NY, USA) at a seeding density of 5000 cells per well, added in 150 μL of cell suspension in a nutrient medium. 24 h after seeding, cells were treated with compound 4b–4g, 4i, 4k–4t, 4v, 7c–7g, and 7i–7q dilutions in the range of 0.01 μM to 100 μM. L-ascoric acid (Sigma Aldrich, Darmstadt, Germany) and Carboxyamidotriazole (Sigma Aldrich, Darmstadt, Germany) were used as control compounds. Incubation of the cells with the compounds were performed for 72 h in a 5% CO2, in humid atmosphere at 37 °C. After incubation, nutrient medium was removed and 40 μL of the MTT reagent ([…]-2,5-diphenyltetrazole bromide (Invitrogen, Carlsbad, CA, USA) was added to each well. 3 h after incubation, 160 μL of DMSO (VWR CHEMICALS, Radnor, PA, USA) were added to each well to dissolve the crystals of purple formazane. The absorbance was measured at 570 nm (TECAN SUNRISE Microtiter plate reader (Männedorf, Switzerland). The experimentally measured optical densities (OD) were converted to the PG (percentage of growth), using the formulas according to the protocol assumed by NIH (National Institute of Health). The IC50 values (concentration causing 50% cell growth inhibition) for each compound were calculated by regression analysis of the survival count curve of the concentrations of the tested compounds. The results were processed in Excel 2010 (Microsoft, Redmond, WA, USA).

[2] = system: A549 (lung adenocarcinoma); experiment: MTT proliferation assay, A549; assay type: cell-based; settings: Homo sapiens, 72 h
Description: as §1, §2

[3] = system: MCF-7 (breast adenocarcinoma); experiment: MTT proliferation assay, MCF-7; assay type: cell-based, Human; settings: Homo sapiens, MCF7; 72 h, MTT
Description: as §1, §2

[4] = system: HCT-116 (colorectal carcinoma); experiment: MTT proliferation assay, HCT-116; assay type: cell-based; settings: Homo sapiens, 72 h
Description: as §1, §2

[5] = DPPH radical scavenging assay; assay type: biochemical
Description: Likewise, L-ASA, the 1,2,3-triazole L-ASA derivatives with free C2-OH and C3-OH groups were expected to be potent antioxidants. Therefore, they were tested as radical scavengers by reaction with the stable free radical 2,2-diphenyl-1-picrylhydrazyl (DPPH^•).
Antioxidant capacity of selected compounds was assessed by 2,2-diphenyl-1-picrylhydrazyl assay (DPPH, Sigma Aldrich, Darmstadt, Germany), in which the antioxidant activity of compounds is measured by the reaction between a stable radical of 1,1-diphenyl-2-picylhydrazil (DPPH^•) and a selected compound according to the manufacturer recommendations. Briefly, compounds 4b–4e, 4f–4h, 4k, 4l, 4o, 4p–4s, 4t, 4v, 7c–7f, 7i–7n, 7q, 7p, and 7o were tested at 0.06, 0.12, 0.18, 0.23, 0.25, and 0.28 mM. L-ascorbic acid was used as the reference compound. Absorbance was measured 5 and 10 min after incubation of the compounds with the DPPH reagent. The reduction of DPPH with selected compounds was monitored by measuring the absorbance at a wavelength of 517 nm on the monochromator (Infinite M200 PRO, TECAN, Männedorf, Switzerland).

[6] = system: HepG2 (hepatocellular carcinoma); experiment: MTT proliferation assay, HepG2; assay type: cell-based; settings: Homo sapiens, 72 h
Description: as §1, §2

[7] = system: WI-38 (lung fibroblasts); experiment: MTT proliferation assay, WI-38; assay type: cell-based; settings: Homo sapiens, 72 h, normal lung fibroblasts
Description: as §1, §2

[8] = system: CFPAC-1 (ductal pancreatic adenocarcinoma); experiment: MTT proliferation assay, CFPAC-1; assay type: cell-based; settings: Homo sapiens, 72 h
Description: as §1, §2

[9] = system: HFF-1 (foreskin fibroblasts); experiment: MTT proliferation assay, HFF-1; assay type: cell-based; settings: Homo sapiens, 72 h, normal foreskin fibroblasts
Description: as §1, §2

[10] = system: HeLa (cervical carcinoma); experiment: MTT proliferation assay, HeLa; assay type: cell-based; settings: Homo sapiens, 72 h
Description: as §1, §2

[11] = 5 min treatment, read-out: IC50 of DPPH• inhibition, Treatm. 5 min
[12] = 10 min treatment, read-out: IC50 of DPPH• inhibition, Treatm. 10 min

Compound | IC50 [1] [µM] | IC50 [2] [µM] | melting point [°C] | IC50 [3] [µM] | IC50 [4] [µM] | IC50 [5, 11] [µM] | IC50 [5, 12] [µM] | IC50 [6] [µM] | IC50 [8] [µM] | IC50 [10] [µM] | IC50 [7] [µM] | IC50 [9] [µM]
CCCCc1cn(C[C@H](O)[C@H]2OC(=O)C(O)=C2O)nn1 [Compound 4m, 6-(4-butyl-1,2,3-triazol-1-yl)-6-deoxy-L-ascorbic acid] | > 100 | > 100 | 98 to 99 | > 100 | > 100 | > 280 | > 280 | > 100 | > 100 | > 100 | > 100 | 0.12
CCCCCCCCCCc1cn(C[C@H](O)[C@H]2OC(=O)C(O)=C2O)nn1 [Compound 4n, 6-(4-decyl-1,2,3-triazol-1-yl)-6-deoxy-L-ascorbic acid] | > 100 | > 100 | 140 to 142 | > 100 | > 100 | 150 ± 60 | 100 ± 30 | > 100 | > 100 | > 100 | > 100 | 0.06
CC(C)(C)c1cn(C[C@H](O)[C@H]2OC(=O)C(O)=C2O)nn1 [Compound 4o, 6-[4-(tert-butyl)-1,2,3-triazol-1-yl]-6-deoxy-L-ascorbic acid] | > 100 | > 100 | ≥ 250 | > 100 | > 100 | 240 ± 28 | 240 ± 40 | > 100 | > 100 | 93 | 95 | < 0.01
O=C1O[C@H]([C@@H](O)Cn2cc(CCCCl)nn2)C(O)=C1O [Compound 4p, 6-[4-(3-chloropropyl)-1,2,3-triazol-1-yl]-6-deoxy-L-ascorbic acid] | > 100 | > 100 | 86 to 88 | 99.6 | > 100 | 150 ± 60 | 150 ± 60 | > 100 | > 100 | 48 | 52.6 | 6.05
O=C1O[C@H]([C@@H](O)Cn2cc(CCO)nn2)C(O)=C1O [Compound 4q, 6-deoxy-6-(4-(2-hydroxyethyl)-1,2,3-triazol-1-yl)-L-ascorbic acid] | > 100 | > 100 | 184 to 186 | > 100 | 63.3 | 240 ± 20 | 230 | > 100 | > 100 | > 100 | > 100 | > 100
Cc1ccc(S(=O)(=O)NCc2cn(C[C@H](O)[C@H]3OC(=O)C(O)=C3O)nn2)cc1 [Compound 4r] | > 100 | > 100 | 125 to 127 | > 100 | > 100 | 250 | 270 ± 20 | > 100 | > 100 | > 100 | > 100 | > 100
O=C1O[C@H]([C@@H](O)Cn2cc(CNS(=O)(=O)c3ccc(Cl)cc3)nn2)C(O)=C1O [Compound 4s] | > 100 | > 100 | 132 to 134 | > 100 | > 100 | 270 ± 20 | 250 | > 100 | > 100 | > 100 | > 100 | 0.4
O=C1O[C@H]([C@@H](O)Cn2cc(CNS(=O)(=O)c3ccc(F)cc3Cl)nn2)C(O)=C1O [Compound 4t] | > 100 | > 100 | 198 to 200 | > 100 | > 100 | 220 ± 80 | 120 ± 20 | > 100 | > 100 | > 100 | > 100 | > 100
O=C1O/C(=C\Cn2cc(CCO)nn2)C(O)=C1O [Compound 7q, 6-[4-(2-hydroxyethyl)-1,2,3-triazole-1-yl]-4,5-didehydro-5,6-dideoxy-L-ascorbic cid] | > 100 | > 100 | 172 to 173 | > 100 | > 100 | 70 | 70 | > 100 | > 100 | > 100 | > 100 | 

More lines, main results first:

IC50 [1] [µM] | IC50 [2] [µM] | melting point [°C] | IC50 [3] [µM] | IC50 [4] [µM] | IC50 [5, 11] [µM] | IC50 [5, 12] [µM] | IC50 [6] [µM] | IC50 [8] [µM] | IC50 [10] [µM] | Compound | IC50 [7] [µM] | IC50 [9] [µM]
> 100 | > 100 | ≥ 250 | > 100 | > 100 | 260 ± 20 | 250 | > 100 | > 100 | > 100 | O=C1O[C@H]([C@@H](O)Cn2cc(-c3cc(C(F)(F)F)cc(C(F)(F)F)c3)nn2)C(O)=C1O [Compound 4c, 6-deoxy-6-[4-(3,5-bis(trifluoromethyl)phenyl)-1,2,3-triazol-1-yl]-L-ascorbic acid] | > 100 | > 100
> 100 | > 100 | 129 to 131 | > 100 | > 100 | > 280 | > 280 | > 100 | > 100 | > 100 | O=C1O[C@H]([C@@H](O)Cn2cc(-c3ccccc3O)nn2)C(O)=C1O [Compound 4i, 6-deoxy-6-[2-hydroxyphenyl-1,2,3-triazol-1-yl]-L-ascorbic acid] | > 100 | 0.92
> 100 | > 100 | 237 to 239 | 26.9 | > 100 | 210 ± 70 | 130 ± 40 | > 100 | > 100 | > 100 | CCCCCc1ccc(-c2cn(C[C@H](O)[C@H]3OC(=O)C(O)=C3O)nn2)cc1 [Compound 4k, 6-deoxy-6-[4-(4-pentylphenyl)-1,2,3-triazol-1-yl]-L-ascorbic acid] | > 100 | 0.21
> 100 | > 100 | 119 to 121 | > 100 | > 100 | 170 ± 160 | 160 ± 140 | > 100 | > 100 | > 100 | O=C1O[C@H]([C@@H](O)Cn2cc(C3CC3)nn2)C(O)=C1O [Compound 4l, 6-[4-cyclopropyl-1,2,3-triazol-1-yl]-6-deoxy-L-ascorbic acid] | > 100 | 4.61
